ChEMBL document CHEMBL1156029, “The discovery of thienopyridine analogues as potent IkappaB kinase beta inhibitors. Part II” (Bioorg Med Chem Lett, 2009)
Activity calls are given as the source filed them. The calls are words filed in the database; no cut-off is given here.

Tests used:
[1] = Plasma concentration in mouse at 30 mg/kg, po after 120 mins; assay type: ADME, organism-based; design: dose 30 mg/kg, route oral
[2] = target: Vascular endothelial growth factor receptor 1 (Homo sapiens, UniProt P17948); test: Inhibition of VEGFR1
Vascular endothelial growth factor receptor 1, sequence (P17948 whole entry): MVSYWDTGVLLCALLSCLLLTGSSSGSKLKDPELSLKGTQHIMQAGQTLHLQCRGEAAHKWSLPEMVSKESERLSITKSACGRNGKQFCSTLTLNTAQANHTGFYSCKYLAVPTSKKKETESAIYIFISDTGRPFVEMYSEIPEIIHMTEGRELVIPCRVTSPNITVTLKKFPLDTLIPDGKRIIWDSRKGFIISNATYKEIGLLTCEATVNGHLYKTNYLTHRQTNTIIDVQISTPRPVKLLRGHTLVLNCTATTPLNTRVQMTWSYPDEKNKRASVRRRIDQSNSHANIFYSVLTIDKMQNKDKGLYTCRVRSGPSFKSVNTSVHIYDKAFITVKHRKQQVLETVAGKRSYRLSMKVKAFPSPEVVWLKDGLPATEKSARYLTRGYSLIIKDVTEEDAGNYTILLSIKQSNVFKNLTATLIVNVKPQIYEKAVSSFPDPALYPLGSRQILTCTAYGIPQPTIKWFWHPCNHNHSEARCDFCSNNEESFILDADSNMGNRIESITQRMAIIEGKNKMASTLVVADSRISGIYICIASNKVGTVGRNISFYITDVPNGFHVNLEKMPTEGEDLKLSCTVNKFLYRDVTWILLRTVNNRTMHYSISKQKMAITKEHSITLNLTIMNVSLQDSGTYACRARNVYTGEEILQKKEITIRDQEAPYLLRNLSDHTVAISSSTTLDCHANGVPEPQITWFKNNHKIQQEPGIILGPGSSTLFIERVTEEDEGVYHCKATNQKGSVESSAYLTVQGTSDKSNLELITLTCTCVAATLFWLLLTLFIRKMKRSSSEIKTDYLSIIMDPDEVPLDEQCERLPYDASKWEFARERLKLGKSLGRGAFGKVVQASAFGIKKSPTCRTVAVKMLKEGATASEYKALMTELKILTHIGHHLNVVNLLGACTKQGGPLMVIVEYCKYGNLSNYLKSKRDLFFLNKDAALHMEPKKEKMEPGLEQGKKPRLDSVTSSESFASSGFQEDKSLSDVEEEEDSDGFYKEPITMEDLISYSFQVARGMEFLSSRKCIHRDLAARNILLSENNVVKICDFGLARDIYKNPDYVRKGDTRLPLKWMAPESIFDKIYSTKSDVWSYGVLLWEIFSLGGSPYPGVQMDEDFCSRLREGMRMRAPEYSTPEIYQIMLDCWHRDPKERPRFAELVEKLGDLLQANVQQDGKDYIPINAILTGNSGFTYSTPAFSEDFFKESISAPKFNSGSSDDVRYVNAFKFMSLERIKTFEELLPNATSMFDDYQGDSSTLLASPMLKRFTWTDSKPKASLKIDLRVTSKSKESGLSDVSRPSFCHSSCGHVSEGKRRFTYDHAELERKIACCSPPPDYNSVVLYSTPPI

[3] = target: Tyrosine-protein kinase Lck (Homo sapiens) (UniProt P06239); test: Inhibition of Lck at 10 uM
[4] = target: Hepatocyte growth factor receptor (Homo sapiens, UniProt P08581); test: Inhibition of HGFR
[5] = target: Insulin-like growth factor 1 receptor (Homo sapiens, UniProt P08069); test: Inhibition of IGF1R
Insulin-like growth factor 1 receptor, sequence (P08069 31-736 limits assumed): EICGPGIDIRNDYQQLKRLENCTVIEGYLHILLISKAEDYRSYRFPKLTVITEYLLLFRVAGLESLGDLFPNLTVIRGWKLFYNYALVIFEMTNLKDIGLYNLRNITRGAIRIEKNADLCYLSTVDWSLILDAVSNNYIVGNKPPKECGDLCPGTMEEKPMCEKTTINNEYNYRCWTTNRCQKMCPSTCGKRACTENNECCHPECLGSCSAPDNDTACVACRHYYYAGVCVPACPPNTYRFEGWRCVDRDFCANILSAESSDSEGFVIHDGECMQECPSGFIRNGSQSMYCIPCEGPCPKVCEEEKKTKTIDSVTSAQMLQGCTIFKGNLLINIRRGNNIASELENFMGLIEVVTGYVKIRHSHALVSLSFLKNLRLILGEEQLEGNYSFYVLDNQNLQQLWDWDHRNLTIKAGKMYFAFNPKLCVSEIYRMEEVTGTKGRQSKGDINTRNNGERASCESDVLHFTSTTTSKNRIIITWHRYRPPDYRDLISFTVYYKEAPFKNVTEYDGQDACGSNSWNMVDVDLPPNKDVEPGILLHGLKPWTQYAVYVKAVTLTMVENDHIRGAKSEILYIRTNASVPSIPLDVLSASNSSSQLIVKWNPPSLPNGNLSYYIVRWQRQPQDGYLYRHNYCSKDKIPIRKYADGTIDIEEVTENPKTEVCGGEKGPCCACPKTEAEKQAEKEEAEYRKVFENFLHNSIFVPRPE
Insulin-like growth factor 1 receptor, sequence (P08069 741-1367 limits assumed): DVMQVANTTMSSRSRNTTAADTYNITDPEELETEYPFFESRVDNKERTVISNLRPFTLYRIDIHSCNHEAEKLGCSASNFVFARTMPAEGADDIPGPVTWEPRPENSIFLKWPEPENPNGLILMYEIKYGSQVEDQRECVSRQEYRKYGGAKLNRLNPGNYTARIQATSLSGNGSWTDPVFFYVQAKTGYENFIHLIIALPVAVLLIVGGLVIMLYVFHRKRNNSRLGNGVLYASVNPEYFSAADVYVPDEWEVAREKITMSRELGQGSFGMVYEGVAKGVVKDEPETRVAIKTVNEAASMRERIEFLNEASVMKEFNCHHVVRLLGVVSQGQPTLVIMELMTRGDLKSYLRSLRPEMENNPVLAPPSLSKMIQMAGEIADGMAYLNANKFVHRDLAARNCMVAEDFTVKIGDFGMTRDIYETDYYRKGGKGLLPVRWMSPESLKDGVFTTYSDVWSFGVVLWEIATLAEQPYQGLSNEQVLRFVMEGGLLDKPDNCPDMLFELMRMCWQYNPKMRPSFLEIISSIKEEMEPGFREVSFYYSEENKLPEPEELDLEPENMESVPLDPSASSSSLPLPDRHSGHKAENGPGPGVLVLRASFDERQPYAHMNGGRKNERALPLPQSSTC

[6] = target: T1, Inhibitor of nuclear factor kappa-B kinase subunit beta (Homo sapiens, UniProt O14920); test: Inhibition of Flag epitope-tagged IKK-beta preincubated for 5 mins by scintillation proximity assay
T1 sequence (O14920 whole entry): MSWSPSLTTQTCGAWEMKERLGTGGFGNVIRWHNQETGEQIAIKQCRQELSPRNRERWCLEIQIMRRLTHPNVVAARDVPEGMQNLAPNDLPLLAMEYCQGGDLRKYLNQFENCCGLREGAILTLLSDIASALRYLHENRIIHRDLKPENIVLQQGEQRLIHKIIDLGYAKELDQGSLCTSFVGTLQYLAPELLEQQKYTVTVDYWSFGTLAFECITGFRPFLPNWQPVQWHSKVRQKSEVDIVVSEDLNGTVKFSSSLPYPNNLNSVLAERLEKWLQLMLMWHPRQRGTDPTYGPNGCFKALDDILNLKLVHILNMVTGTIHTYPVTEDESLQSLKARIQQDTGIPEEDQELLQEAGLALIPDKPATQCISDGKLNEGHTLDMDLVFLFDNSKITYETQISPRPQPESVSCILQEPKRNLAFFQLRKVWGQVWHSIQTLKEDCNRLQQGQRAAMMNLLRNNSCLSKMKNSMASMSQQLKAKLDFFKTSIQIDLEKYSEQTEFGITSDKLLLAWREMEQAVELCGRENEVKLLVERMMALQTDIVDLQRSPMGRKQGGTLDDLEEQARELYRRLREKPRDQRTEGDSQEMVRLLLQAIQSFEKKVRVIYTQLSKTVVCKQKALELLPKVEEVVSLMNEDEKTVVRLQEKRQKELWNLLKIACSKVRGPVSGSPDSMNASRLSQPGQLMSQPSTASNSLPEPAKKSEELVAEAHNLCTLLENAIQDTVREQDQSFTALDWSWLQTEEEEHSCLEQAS

[7] = target: Casein kinase I isoform alpha (Homo sapiens) (UniProt P48729); test: Inhibition of CK1 at 10 uM
[8] = Inhibition of AMPK at 10 uM
[9] = target: T2, Serine/threonine-protein kinase Chk1 (Homo sapiens) (UniProt O14757); test: Inhibition of CHK1 at 10 uM
T2 sequence (whole entry): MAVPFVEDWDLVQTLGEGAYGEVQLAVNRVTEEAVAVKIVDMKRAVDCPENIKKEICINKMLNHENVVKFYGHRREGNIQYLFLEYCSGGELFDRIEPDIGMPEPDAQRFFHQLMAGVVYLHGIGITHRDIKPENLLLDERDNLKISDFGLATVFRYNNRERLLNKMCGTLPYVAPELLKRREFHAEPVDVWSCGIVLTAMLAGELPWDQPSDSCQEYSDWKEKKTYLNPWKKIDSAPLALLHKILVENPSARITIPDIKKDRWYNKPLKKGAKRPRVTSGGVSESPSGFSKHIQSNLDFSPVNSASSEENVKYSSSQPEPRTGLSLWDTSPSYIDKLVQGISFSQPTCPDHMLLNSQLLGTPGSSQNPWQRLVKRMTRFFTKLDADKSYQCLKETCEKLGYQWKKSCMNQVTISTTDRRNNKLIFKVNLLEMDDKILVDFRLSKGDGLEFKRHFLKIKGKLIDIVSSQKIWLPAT

[10] = target: Ribosomal protein S6 kinase alpha-5 (Homo sapiens) (UniProt O75582); test: Inhibition of MSK1 at 10 uM
Ribosomal protein S6 kinase alpha-5 (Homo sapiens), sequence (O75582 whole entry, looked up): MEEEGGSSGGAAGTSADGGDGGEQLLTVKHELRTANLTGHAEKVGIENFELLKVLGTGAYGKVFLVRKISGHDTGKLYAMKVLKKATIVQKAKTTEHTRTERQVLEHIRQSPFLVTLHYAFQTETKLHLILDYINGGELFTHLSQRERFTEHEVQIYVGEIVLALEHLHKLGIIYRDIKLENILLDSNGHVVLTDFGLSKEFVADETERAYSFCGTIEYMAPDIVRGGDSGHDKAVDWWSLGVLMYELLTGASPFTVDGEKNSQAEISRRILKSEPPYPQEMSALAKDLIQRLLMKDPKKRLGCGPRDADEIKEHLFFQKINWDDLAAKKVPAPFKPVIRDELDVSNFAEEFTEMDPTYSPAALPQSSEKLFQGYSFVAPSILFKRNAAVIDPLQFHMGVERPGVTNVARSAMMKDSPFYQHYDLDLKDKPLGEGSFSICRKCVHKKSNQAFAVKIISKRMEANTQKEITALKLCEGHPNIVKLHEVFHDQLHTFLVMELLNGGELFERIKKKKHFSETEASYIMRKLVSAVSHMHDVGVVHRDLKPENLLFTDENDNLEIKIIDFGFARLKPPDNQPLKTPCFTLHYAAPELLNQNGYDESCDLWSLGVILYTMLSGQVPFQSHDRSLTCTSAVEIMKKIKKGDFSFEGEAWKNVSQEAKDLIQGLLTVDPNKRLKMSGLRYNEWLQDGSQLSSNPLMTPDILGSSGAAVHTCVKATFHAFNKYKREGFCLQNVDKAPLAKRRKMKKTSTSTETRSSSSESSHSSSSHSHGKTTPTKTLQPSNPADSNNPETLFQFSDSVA

[11] = target: Rho-associated protein kinase 2 (Homo sapiens) (UniProt O75116); test: Inhibition of ROCK-2 at 10 uM
Rho-associated protein kinase 2 (Homo sapiens), sequence (O75116 whole entry, looked up): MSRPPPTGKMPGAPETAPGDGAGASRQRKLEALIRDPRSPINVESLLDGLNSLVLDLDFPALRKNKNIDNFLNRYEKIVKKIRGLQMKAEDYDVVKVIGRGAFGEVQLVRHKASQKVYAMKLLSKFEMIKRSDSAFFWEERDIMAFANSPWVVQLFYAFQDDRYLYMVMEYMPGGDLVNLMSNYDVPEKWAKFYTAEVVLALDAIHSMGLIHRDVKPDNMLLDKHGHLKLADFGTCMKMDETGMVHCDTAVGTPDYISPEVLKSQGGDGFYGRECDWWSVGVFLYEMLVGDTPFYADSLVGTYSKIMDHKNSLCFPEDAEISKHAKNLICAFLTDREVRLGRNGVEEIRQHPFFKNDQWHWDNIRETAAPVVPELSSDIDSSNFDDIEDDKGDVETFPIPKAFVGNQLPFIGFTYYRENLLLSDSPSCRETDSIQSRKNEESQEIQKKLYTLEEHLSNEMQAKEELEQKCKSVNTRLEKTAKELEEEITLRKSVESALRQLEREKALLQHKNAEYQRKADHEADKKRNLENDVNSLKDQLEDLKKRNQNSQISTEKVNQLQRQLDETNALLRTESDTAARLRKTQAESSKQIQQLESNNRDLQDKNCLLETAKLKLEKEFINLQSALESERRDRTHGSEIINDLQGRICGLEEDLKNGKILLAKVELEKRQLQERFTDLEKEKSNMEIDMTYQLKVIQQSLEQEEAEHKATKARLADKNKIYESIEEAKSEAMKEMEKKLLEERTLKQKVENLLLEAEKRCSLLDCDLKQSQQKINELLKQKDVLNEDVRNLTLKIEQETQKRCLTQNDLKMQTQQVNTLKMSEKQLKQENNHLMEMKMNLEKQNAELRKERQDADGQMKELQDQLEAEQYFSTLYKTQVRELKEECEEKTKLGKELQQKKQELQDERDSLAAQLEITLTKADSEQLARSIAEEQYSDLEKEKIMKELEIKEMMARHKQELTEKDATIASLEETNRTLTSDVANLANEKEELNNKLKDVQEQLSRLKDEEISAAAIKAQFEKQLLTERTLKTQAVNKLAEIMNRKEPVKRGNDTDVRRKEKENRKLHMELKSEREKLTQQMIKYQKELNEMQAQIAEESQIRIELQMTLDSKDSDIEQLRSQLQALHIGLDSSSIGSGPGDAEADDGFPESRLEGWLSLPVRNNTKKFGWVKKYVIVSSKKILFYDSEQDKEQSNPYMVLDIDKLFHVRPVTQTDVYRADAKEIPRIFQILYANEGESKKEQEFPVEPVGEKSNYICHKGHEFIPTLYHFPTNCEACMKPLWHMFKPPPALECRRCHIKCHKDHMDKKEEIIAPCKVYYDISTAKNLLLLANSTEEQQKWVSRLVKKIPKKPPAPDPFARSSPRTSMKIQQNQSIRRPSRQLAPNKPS

[12] = target: Ribosomal protein S6 kinase alpha-1 (Homo sapiens) (UniProt Q15418); test: Inhibition of MAPKAPK-1a at 10 uM
[13] = system: HeLa; test: Inhibition of TNF-alpha-induced NF-kappaB transfected in human HeLa cells preincubated for 30 mins before TNFalpha challenge after 6 hrs by luciferase reporter gene assay; assay type: cell-based
[14] = Inhibition of JNK/SAPK1c at 10 uM
[15] = target: T3, Serine/threonine-protein kinase Sgk1 (Homo sapiens) (UniProt O00141); test: Inhibition of SGK at 10 uM
T3 sequence (whole entry): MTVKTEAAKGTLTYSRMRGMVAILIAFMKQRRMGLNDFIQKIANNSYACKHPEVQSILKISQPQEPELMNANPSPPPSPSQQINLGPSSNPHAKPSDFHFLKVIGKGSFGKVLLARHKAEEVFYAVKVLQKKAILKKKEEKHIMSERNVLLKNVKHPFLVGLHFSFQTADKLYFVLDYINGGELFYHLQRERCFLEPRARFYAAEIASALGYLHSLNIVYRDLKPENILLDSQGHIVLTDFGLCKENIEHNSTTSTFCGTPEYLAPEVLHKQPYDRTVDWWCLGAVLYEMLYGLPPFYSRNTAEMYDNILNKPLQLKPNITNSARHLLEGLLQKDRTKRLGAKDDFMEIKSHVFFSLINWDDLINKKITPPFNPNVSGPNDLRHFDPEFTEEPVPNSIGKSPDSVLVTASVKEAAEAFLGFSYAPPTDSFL

[16] = Inhibition of CK2 at 10 uM
[17] = target: T4, MAP kinase-activated protein kinase 5 (Homo sapiens) (UniProt Q8IW41); test: Inhibition of PRAK at 10 uM
T4 sequence (whole entry): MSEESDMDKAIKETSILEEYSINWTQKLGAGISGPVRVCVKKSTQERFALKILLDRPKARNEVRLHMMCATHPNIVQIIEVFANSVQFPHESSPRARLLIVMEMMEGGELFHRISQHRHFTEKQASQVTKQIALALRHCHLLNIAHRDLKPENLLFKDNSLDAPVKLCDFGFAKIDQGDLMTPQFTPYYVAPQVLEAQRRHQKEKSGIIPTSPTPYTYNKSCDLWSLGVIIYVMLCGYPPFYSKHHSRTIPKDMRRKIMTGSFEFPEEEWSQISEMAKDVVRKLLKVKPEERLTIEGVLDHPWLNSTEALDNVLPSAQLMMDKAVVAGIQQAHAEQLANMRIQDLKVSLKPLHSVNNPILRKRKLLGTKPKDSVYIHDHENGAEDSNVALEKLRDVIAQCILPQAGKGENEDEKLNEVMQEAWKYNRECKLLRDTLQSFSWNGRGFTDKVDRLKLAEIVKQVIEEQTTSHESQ

[18] = target: Tyrosine-protein kinase SYK (Homo sapiens, UniProt P43405); test: Inhibition of Syk

concentration at 2 h [1]	IC50 [2]	Activity [3]	IC50 [4]	IC50 [5]	IC50 [6]	Activity [7]	Activity [8]	Activity [9]	Activity [10]	Activity [11]	Activity [12]	IC50 [13]	Activity [14]	Activity [15]	Activity [16]	Activity [17]	IC50 [18]	SMILES
3.1 µM	> 7 µM	inactive	> 7 µM	> 7 µM	0.57 µM	inactive	inactive	inactive	inactive	inactive	inactive	6.1 µM	inactive	inactive	inactive	inactive		CCCc1cc(N2CCCC(O)C2)nc2sc(C(N)=O)c(N)c12 (stereo not given)
< 0.01 µM	> 7 µM	inactive	> 7 µM	> 7 µM	0.12 µM	inactive	inactive	inactive	inactive	inactive	inactive	7.5 µM	inactive	inactive	inactive	inactive	> 7 µM	CCCc1cc(N2CCNCC2)nc2sc(C(N)=O)c(N)c12
15.5 µM	> 7 µM	inactive	> 7 µM	> 7 µM	0.28 µM	inactive	inactive	inactive	inactive	inactive	inactive	5.3 µM	inactive	inactive	inactive	inactive	> 7 µM	CCCc1cc(N2CCC(O)CC2)nc2sc(C(N)=O)c(N)c12
0.02 µM	> 7 µM	inactive		> 7 µM	0.041 µM	inactive	inactive	inactive	inactive	inactive	inactive	1.5 µM	inactive	inactive	inactive	inactive	> 7 µM	CCCc1cc(N2CCC(N)CC2)nc2sc(C(N)=O)c(N)c12
